One assay deals with T1, HiBit-BRG1 (Homo sapiens, UniProt P51532).
T1 construct: expressed in transfected cells
Nature of the assay: HiBit-BRG1 cell-based degradation assay (Nano-Glo HiBiT Lytic Detection). To be noted: HeLa cells expressing HiBit-BRG1 and LgBit, 24 h; for DC50: read-out: BRG1 HiBit Degradation IC50; for Dmax: read-out: BRG1 HiBit Degradation Maximum (%). In a few lines: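 Seed 5000 HeLa HiBit-BRG1/LgBit cells per well; treat 24 h; equilibrate 15 min at room temperature; add Nano-Glo HiBiT lytic reagent, shake 10 min, read luminescence. Percent degradation is scaled between DMSO and 2 μM reference degrader wells.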
Background: The HiBiT peptide binds its large partner to form an active luciferase.

In a further assay the target is T2, HiBiT-BRM (Homo sapiens, UniProt P51531).
T2 construct: expressed in transfected cells
T2 sequence (P51531 whole entry): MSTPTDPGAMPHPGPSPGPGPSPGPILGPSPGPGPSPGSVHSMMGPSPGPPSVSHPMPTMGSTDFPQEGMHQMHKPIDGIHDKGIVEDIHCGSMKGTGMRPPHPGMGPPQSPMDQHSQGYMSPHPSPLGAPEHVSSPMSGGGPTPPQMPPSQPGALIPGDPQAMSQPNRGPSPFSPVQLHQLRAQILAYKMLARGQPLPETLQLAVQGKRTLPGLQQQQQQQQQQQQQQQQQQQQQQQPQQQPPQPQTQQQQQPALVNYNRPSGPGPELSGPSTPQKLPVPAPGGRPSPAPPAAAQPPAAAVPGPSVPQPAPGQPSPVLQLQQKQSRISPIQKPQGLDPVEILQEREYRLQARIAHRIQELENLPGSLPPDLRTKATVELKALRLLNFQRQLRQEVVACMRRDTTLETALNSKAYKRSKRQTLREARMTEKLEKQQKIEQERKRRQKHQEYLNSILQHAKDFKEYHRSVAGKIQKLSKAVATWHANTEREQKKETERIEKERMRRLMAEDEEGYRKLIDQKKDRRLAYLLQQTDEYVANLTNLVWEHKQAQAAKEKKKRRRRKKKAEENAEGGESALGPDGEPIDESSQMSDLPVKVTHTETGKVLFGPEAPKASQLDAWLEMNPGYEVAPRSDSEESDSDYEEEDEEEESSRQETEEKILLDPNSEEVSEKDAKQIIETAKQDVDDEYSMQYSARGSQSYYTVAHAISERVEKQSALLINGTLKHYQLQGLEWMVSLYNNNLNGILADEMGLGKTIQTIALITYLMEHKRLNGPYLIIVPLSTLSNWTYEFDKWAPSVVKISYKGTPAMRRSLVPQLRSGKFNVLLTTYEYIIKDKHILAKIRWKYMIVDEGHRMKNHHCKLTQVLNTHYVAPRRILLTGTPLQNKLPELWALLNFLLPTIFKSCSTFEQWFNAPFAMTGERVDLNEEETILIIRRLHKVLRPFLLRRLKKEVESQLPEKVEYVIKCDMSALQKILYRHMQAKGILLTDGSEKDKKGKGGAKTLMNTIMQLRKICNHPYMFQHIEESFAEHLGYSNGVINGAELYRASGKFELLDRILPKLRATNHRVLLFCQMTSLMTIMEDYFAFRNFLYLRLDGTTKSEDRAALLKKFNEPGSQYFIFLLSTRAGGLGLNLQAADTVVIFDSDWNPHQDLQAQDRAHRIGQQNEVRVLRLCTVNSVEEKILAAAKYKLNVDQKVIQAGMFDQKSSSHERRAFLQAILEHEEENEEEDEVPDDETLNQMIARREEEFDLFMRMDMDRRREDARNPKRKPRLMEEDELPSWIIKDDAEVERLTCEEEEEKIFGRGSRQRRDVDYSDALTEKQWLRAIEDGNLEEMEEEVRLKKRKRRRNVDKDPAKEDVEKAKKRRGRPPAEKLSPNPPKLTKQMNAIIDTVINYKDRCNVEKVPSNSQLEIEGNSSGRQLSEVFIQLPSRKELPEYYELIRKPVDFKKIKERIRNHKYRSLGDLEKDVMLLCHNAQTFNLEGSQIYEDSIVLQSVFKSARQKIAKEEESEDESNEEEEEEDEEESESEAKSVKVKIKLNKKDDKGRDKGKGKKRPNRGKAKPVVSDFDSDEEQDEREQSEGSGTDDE
Put plainly: HiBiT-BRM cell-based degradation assay (Nano-Glo HiBiT Lytic Detection). To be noted: HeLa cells expressing HiBiT-BRM, 24 h; for DC50: read-out: BRM HiBit Degradation IC50. In outline: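 Luminescence from HiBiT–LgBiT complementation in lysates of a stable HiBiT-BRM HeLa line measured after 24 h compound exposure. Degradation expressed as percent relative to DMSO-treated cells and cells given 2 μM of a known BRM/BRG1 degrader.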

Structures can show the parent of a compound that is named as a salt.

T1 sequence (P51532 whole entry): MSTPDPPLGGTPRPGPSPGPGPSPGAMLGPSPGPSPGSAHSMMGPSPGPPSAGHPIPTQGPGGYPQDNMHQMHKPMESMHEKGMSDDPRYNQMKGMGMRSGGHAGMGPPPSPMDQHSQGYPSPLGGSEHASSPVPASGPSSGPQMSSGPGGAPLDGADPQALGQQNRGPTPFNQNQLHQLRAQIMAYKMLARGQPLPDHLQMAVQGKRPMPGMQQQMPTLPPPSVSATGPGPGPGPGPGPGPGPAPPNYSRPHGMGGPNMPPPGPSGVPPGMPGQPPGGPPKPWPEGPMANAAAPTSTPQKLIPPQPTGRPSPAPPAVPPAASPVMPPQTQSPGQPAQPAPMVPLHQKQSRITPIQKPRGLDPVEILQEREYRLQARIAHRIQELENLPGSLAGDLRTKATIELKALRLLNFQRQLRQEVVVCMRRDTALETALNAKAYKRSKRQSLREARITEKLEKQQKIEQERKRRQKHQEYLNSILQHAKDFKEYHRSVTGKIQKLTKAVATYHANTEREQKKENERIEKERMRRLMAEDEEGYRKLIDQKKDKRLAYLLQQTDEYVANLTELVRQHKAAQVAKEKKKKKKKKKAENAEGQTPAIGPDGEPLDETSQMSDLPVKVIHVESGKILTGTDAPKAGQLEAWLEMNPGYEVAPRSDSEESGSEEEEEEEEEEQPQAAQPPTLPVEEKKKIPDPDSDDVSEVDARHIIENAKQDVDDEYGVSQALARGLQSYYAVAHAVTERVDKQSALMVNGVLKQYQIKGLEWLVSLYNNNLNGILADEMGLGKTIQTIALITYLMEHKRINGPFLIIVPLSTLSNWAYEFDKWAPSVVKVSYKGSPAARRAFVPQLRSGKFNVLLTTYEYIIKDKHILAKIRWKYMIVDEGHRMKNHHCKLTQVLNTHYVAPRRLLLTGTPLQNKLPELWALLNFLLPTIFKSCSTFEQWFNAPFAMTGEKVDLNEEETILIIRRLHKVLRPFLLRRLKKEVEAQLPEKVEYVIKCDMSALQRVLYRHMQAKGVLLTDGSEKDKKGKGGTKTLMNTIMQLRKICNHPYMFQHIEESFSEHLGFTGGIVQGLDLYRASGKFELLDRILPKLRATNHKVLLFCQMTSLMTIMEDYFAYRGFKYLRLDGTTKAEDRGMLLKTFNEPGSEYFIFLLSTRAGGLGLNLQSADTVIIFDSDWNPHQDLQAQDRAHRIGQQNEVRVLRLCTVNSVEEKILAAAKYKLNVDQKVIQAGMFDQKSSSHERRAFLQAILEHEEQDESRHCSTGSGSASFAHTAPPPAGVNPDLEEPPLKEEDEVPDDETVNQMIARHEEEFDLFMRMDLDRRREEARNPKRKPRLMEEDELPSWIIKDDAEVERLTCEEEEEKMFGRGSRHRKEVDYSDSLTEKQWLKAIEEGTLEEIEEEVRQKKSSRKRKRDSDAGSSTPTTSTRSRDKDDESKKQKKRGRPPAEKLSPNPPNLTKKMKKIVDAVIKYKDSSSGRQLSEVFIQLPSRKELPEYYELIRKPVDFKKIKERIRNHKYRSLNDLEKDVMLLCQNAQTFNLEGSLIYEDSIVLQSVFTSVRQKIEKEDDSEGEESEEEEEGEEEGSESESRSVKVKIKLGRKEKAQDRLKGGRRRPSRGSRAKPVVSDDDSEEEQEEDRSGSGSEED

`Cc1ncsc1-c1ccc(CNC(=O)[C@@H]2C[C@@H](O)CN2C(=O)[C@@H](NC(=O)CN2CCC(OC3CCN(CCC(=O)NCc4ccc(CCOc5cc(-c6ccccc6O)nnc5N)cc4)CC3)CC2)C(C)(C)C)cc1` [Compound 244, (2S,4R)-1-((S)-2-(2-(4-((1-(3-((4-(2-((3-amino-6-(2-hydroxyphenyl)pyridazin-4-yl)oxy)ethyl)benzyl)amino)-3-oxopropyl)piperidin-4-yl)oxy)piperidin-1-yl)acetamido)-3,3-dimethylbutanoyl)-4-hydroxy-N-(4-(4-methylthiazol-5-yl)benzyl)pyrrolidine-2-carboxamide]: on HiBit-BRG1, the DC50 was over 1000 nM and the Dmax is under 50%. Besides, on HiBiT-BRM, the “BRM HiBit Degradation Maximum (%)” value is recorded as “A (“A” indicates maximum degradation ≥75%)” and the DC50 was over 1000 nM.

With `Cc1ncsc1-c1ccc([C@H](C)NC(=O)[C@@H]2C[C@@H](O)CN2C(=O)[C@@H](NC(=O)CCCCCCCCCCC(=O)NCc2ccc(CCOc3cc(-c4ccccc4O)nnc3N)cc2)C(C)(C)C)cc1` [Compound 247, N1-(4-(2-((3-amino-6-(2-hydroxyphenyl)pyridazin-4-yl)oxy)ethyl)benzyl)-N12-((S)-1-((2S,4R)-4-hydroxy-2-(((S)-1-(4-(4-methylthiazol-5-yl)phenyl)ethyl)carbamoyl)pyrrolidin-1-yl)-3,3-dimethyl-1-oxobutan-2-yl)dodecanediamide], at HiBit-BRG1, the DC50 is over 1000 nM and the Dmax is under 50%. For the same compound, at HiBiT-BRM, the “BRM HiBit Degradation Maximum (%)” value is recorded as “A (“A” indicates maximum degradation ≥75%)” and the DC50 is over 10 nM.

As for `Cc1ncsc1-c1ccc(CNC(=O)[C@@H]2C[C@@H](O)CN2C(=O)[C@@H](NC(=O)CCCCCCCCC(=O)NCc2ccc(CCNc3cc(-c4ccccc4O)nnc3N)cc2)C(C)(C)C)cc1` [Compound 140, N′-[[4-(2-[[3-amino-6-(2-hydroxyphenyl)pyridazin-4-yl]amino]ethyl)phenyl]methyl]-N-[(2S)-1-[(2S,4R)-4-hydroxy-2-([[4-(4-methyl-1,3-thiazol-5-yl)phenyl]methyl]carbamoyl)pyrrolidin-1-yl]-3,3-dimethyl-1-oxobutan-2-yl]decanediamide], at HiBit-BRG1, the DC50 was over 1000 nM and the Dmax is under 50%. On HiBiT-BRM, the “BRM HiBit Degradation Maximum (%)” value was “A (“A” indicates maximum degradation ≥75%)” and the DC50 was over 100 nM.

On to `Nc1nnc(-c2ccccc2O)cc1OCCc1ccc(C(=O)NCCCCCCNc2ccc3c(c2)C(=O)N(C2CCC(=O)NC2=O)C3=O)cc1` (stereo not shown) [Compound 46, 4-(2-[[3-amino-6-(2-hydroxyphenyl)pyridazin-4-yl]oxy]ethyl)-N-(6-[[2-(2,6-dioxopiperidin-3-yl)-1,3-dioxoisoindol-5-yl]amino]hexyl)benzamide], for which, at HiBit-BRG1, the DC50 is over 1000 nM and the Dmax is under 50%. Moreover, on HiBiT-BRM, the “BRM HiBit Degradation Maximum (%)” value is on record as “C (“C” indicates maximum degradation <50%)” and the DC50 was over 1000 nM.

Turning to `Nc1nnc(-c2ccccc2O)cc1OCCc1ccc(CNCCN2CCN(c3cccc4c3C(=O)N(C3CCC(=O)NC3=O)C4=O)CC2)cc1` (stereo not shown) [Compound 110, 4-[4-[2-([[4-(2-[[3-amino-6-(2-hydroxyphenyl)pyridazin-4-yl]oxy]ethyl)phenyl]methyl]amino)ethyl]piperazin-1-yl]-2-(2,6-dioxopiperidin-3-yl)isoindole-1,3-dione], at HiBit-BRG1, the DC50 is over 100 nM and the Dmax was over 50%. Moreover, on HiBiT-BRM, the “BRM HiBit Degradation Maximum (%)” value is on record as “A (“A” indicates maximum degradation ≥75%)” and the DC50 is over 10 nM.

As for `Nc1nnc(-c2ccccc2O)cc1N1CCN(CCNC(=O)CCCOc2cccc3c2C(=O)N(C2CCC(=O)NC2=O)C3=O)CC1` (stereo not shown) [Compound 84, N-(2-(4-(3-amino-6-(2-hydroxyphenyl)pyridazin-4-yl)piperazin-1-yl)ethyl)-4-((2-(2,6-dioxopiperidin-3-yl)-1,3-dioxoisoindolin-4-yl)oxy)butanamide], on HiBit-BRG1, the DC50 was over 1000 nM and the Dmax was under 50%. Further, on HiBiT-BRM, the “BRM HiBit Degradation Maximum (%)” value is “C (“C” indicates maximum degradation <50%)” and the DC50 was over 1000 nM.

Turning to `Nc1nnc(-c2ccccc2O)cc1OCCc1ccc(CNCCNc2cccc3c2C(=O)N(C2CCC(=O)NC2=O)C3=O)cc1` (stereo not shown) [Compound 109, 4-[[2-([[4-(2-[[3-amino-6-(2-hydroxyphenyl)pyridazin-4-yl]oxy]ethyl)phenyl]methyl]amino)ethyl]amino]-2-(2,6-dioxopiperidin-3-yl)isoindole-1,3-dione, formic acid salt], at HiBit-BRG1, the DC50 is over 1000 nM and the Dmax is under 50%. Besides, on HiBiT-BRM, the “BRM HiBit Degradation Maximum (%)” value was “C (“C” indicates maximum degradation <50%)” and the DC50 was over 1000 nM.

As to `Cc1ncsc1-c1ccc(CNC(=O)[C@@H]2C[C@@H](O)CN2C(=O)[C@@H](NC(=O)CCCCC(=O)NCc2ccc(CCOc3cc(-c4ccccc4O)nnc3N)cc2)C(C)(C)C)cc1` [Compound 27, N′-[[4-(2-[[3-amino-6-(2-hydroxyphenyl)pyridazin-4-yl]oxy]ethyl)phenyl]methyl]-N-[(2S)-1-[(2S,4R)-4-hydroxy-2-([[4-(4-methyl-1,3-thiazol-5-yl)phenyl]methyl]carbamoyl)pyrrolidin-1-yl]-3,3-dimethyl-1-oxobutan-2-yl]hexanediamide], on HiBit-BRG1, the DC50 is over 1000 nM and the Dmax is under 50%. Also, at HiBiT-BRM, the “BRM HiBit Degradation Maximum (%)” value is listed as “A (“A” indicates maximum degradation ≥75%)” and the DC50 was over 1000 nM.

As for `Cc1nc2cccc(NCCOCCOCCNC(=O)c3ccc(CCOc4cc(-c5ccccc5O)nnc4N)cc3)c2c(=O)n1C1CCC(=O)NC1=O` (stereo not shown) [Compound 48, 4-(2-[[3-amino-6-(2-hydroxyphenyl)pyridazin-4-yl]oxy]ethyl)-N-[2-[2-(2-[[3-(2,6-dioxopiperidin-3-yl)-2-methyl-4-oxoquinazolin-5-yl]amino]ethoxy)ethoxy]ethyl]benzamide], at HiBit-BRG1, the DC50 is over 1000 nM and the Dmax was under 50%. Besides, at HiBiT-BRM, the “BRM HiBit Degradation Maximum (%)” value is reported as “C (“C” indicates maximum degradation <50%)” and the DC50 was over 1000 nM.

Turning to `CN(CCCCCOc1ccc2c(c1)C(=O)N(C1CCC(=O)NC1=O)C2=O)Cc1ccc(CCOc2cc(-c3ccccc3O)nnc2N)cc1` (stereo not shown) [Compound 148, 5-((5-((4-(2-((3-amino-6-(2-hydroxyphenyl)pyridazin-4-yl)oxy)ethyl)benzyl)(methyl)amino)pentyl)oxy)-2-(2,6-dioxopiperidin-3-yl)isoindoline-1,3-dioneformate], on HiBit-BRG1, the DC50 is over 1000 nM and the Dmax is under 50%. On HiBiT-BRM, the “BRM HiBit Degradation Maximum (%)” value was “C (“C” indicates maximum degradation <50%)” and the DC50 is over 1000 nM.

Regarding `Cc1ncsc1-c1ccc([C@H](C)NC(=O)[C@@H]2C[C@@H](O)CN2C(=O)[C@@H](NC(=O)CCCCCCCCCCCCCCC(=O)N(C)Cc2ccc(CCOc3cc(-c4ccccc4O)nnc3N)cc2)C(C)(C)C)cc1` [Compound 215, N1-(4-(2-((3-amino-6-(2-hydroxyphenyl)pyridazin-4-yl)oxy)ethyl)benzyl)-N16-((S)-1-((2S,4R)-4-hydroxy-2-(((S)-1-(4-(4-methylthiazol-5-yl)phenyl)ethyl)carbamoyl)pyrrolidin-1-yl)-3,3-dimethyl-1-oxobutan-2-yl)-N1-methylhexadecanediamide], at HiBit-BRG1, the DC50 is over 1000 nM and the Dmax is under 50%. Further, at HiBiT-BRM, the “BRM HiBit Degradation Maximum (%)” value was “A (“A” indicates maximum degradation ≥75%)” and the DC50 was over 10 nM.

Take `Cc1ncsc1-c1ccc(CNC(=O)[C@@H]2C[C@@H](O)CN2C(=O)[C@@H](NC(=O)CCNCc2ccc(CCOc3cc(-c4ccccc4O)nnc3N)cc2)C(C)(C)C)cc1` [Compound 187, (2S,4R)-1-((S)-2-(3-((4-(2-((3-amino-6-(2-hydroxyphenyl)pyridazin-4-yl)oxy)ethyl)benzyl)amino)propanamido)-3,3-dimethylbutanoyl)-4-hydroxy-N-(4-(4-methylthiazol-5-yl)benzyl)pyrrolidine-2-carboxamide]: at HiBit-BRG1, the DC50 is over 1000 nM and the Dmax is under 50%. At HiBiT-BRM, the “BRM HiBit Degradation Maximum (%)” value is listed as “C (“C” indicates maximum degradation <50%)” and the DC50 was over 1000 nM.

Turning to `Cc1ncsc1-c1ccc(CNC(=O)[C@@H]2C[C@@H](O)CN2C(=O)[C@@H](NC(=O)COCCOCCNC(=O)CN2CCN(c3cc(-c4ccccc4O)nnc3N)CC2)C(C)(C)C)cc1` [Compound 100, (2S,4R)-1-[(2S)-2-(2-[2-[2-(2-[4-[3-amino-6-(2-hydroxyphenyl)pyridazin-4-yl]piperazin-1-yl]acetamido)ethoxy]ethoxy]acetamido)-3,3-dimethylbutanoyl]-4-hydroxy-N-[[4-(4-methyl-1,3-thiazol-5-yl)phenyl]methyl]pyrrolidine-2-carboxamide], at HiBit-BRG1, the DC50 was over 1000 nM and the Dmax is under 50%. At HiBiT-BRM, the “BRM HiBit Degradation Maximum (%)” value is reported as “C (“C” indicates maximum degradation <50%)” and the DC50 is over 1000 nM.

Source of the values: patent US20230150974A1 (Foghorn Therapeutics Inc., priority 2020, published 2023).
